Results on 3 molecules are retold here after ChEMBL document CHEMBL1158428, “The influence of double bond geometry in the inhibition of cyclooxygenases by sulindac derivatives” (Bioorg Med Chem Lett, 2009).

The source made the active and inactive calls. No cut-off for these calls is given here.

Experiment [1] deals with T1, Prostaglandin G/H synthase 2 (Homo sapiens) (UniProt P35354).
T1 sequence (whole entry): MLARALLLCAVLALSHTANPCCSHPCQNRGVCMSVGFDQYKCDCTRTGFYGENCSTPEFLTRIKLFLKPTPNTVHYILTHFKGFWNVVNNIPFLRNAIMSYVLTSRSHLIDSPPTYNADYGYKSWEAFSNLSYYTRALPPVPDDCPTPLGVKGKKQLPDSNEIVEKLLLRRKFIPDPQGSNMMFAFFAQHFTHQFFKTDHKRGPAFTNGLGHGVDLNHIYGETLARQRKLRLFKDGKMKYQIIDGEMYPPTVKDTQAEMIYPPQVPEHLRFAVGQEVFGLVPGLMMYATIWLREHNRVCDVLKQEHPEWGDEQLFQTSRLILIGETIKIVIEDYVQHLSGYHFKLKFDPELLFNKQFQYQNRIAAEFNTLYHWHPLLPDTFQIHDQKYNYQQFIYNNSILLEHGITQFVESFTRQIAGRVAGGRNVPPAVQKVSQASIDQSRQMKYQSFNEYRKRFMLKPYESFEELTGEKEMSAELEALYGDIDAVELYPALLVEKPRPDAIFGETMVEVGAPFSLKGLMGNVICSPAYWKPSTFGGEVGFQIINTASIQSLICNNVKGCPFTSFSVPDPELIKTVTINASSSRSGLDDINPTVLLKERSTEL
Nature of the experiment: Inhibition of COX2.

Experiment [2] has as its target T2, Prostaglandin G/H synthase 1 (Ovis aries) (UniProt P05979).
T2 sequence (whole entry): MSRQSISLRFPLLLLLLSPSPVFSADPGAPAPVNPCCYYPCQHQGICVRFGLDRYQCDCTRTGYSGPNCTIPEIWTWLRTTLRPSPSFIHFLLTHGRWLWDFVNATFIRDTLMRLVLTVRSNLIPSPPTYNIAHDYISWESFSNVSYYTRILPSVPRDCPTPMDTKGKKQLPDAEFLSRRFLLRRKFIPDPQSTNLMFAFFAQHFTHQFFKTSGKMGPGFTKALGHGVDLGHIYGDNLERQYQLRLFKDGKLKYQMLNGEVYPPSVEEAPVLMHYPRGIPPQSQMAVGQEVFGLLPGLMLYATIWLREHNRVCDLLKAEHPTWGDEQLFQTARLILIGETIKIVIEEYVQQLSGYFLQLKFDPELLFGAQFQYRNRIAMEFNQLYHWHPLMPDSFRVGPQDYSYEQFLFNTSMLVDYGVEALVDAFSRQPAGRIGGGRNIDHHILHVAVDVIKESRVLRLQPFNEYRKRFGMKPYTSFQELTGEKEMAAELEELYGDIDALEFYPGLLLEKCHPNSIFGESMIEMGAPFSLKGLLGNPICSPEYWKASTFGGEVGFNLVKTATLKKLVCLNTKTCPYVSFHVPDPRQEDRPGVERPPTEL
The settings on record: 115 nM.
Description: Inhibition of ovine COX1 under saturated substrate level preincubated at 115 nM for 17 mins by TLC

Regarding `COc1ccc2c(c1)c(CC(=O)O)cn2C(=O)c1ccc(Cl)cc1`, the outcome in experiment [1] was inactive.

Take `CSc1ccc(/C=C2/C=C(CC(=O)O)c3cc(F)ccc32)cc1`: the inhibition (as a rule, how much of the control response was suppressed) in experiment [2] worked out at 20%.

`CSc1ccc(/C=C2/C(C)=C(CC(=O)O)c3cc(F)ccc32)cc1` registered an inhibition in experiment [2] of 75%.
